Laboratory results as given in patent US8247423B2, “Methods and compositions for the treatment of cancer, tumors, and tumor-related disorders” (Tragara Pharmaceuticals, Inc., priority 2007, dated 2012).

Assay: clinical
Conditions: human, in vivo, po
Description: Methods: Subjects with recurrent or metastatic NSCLC were treated with erlotinib (150 mg/day PO) and escalating doses of 2-(4-ethoxyphenyl)-4-methyl-1-(4-sulfamoylphenyl)-pyrrole (100-1200 mg/day PO). Pharmacokinetics for 2-(4-ethoxyphenyl)-4-methyl-1-(4-sulfamoylphenyl)-pyrrole and erlotinib were evaluated.

Tmax: 2 h
half-life: 11.8 h
Compound: CCOc1ccc(-c2cc(C)cn2-c2ccc(S(N)(=O)=O)cc2)cc1
